Results: ChEMBL document CHEMBL3817790 (Medchemcomm, 2016)
pEC50, pIC50: −log10 of the molar value.

Assays:
Leishmania amazonensis = assay: Antileishmanial activity against promastigote stage of Leishmania amazonensis MHOM/BR/75/Josefa assessed as reduction in parasitic count after 72 hrs by Neubauer hemocytometry; format: functional, organism-based
Trypanosoma cruzi [1] = assay: Antitrypanosomal activity against trypomastigote stage of Trypanosoma cruzi Y assessed as reduction in parasitic viability after 24 hrs by Pizzi-Brener method; format: functional, organism-based
[2] = Cytotoxicity against African green monkey Vero cells after 72 hrs by MTT assay; format: cell-based; conditions: chlorocebus sabaeus
Trypanosoma cruzi [3] = assay: Antitrypanosomal activity against epimastigote stage of Trypanosoma cruzi Y assessed as reduction in parasitic count after 96 hrs by Neubauer hemocytometry; format: functional, organism-based
Leishmania donovani = assay: Antileishmanial activity against promastigote stage of Leishmania donovani after 2 hrs by [3H]thymidine incorporation assay; format: functional, organism-based

Compound | pIC50 (Leishmania amazonensis) | pEC50 (Trypanosoma cruzi [1]) | pIC50 (Trypanosoma cruzi [3]) | pIC50 (Leishmania donovani) | CC50 at 72 h [2] [µM]
CC/C(=C\c1ccc(Cl)cc1)C(=O)/C=C/c1ccc(Cl)cc1 | 5.62 | 4.59 | 4.99 | – | 28.3
COc1ccc(/C=C(\C)C(=O)/C=C/c2c(Cl)cccc2Cl)cc1 | 5.09 | 4.55 | 4.71 | – | 65.7
CC/C(=C\c1ccc(Cl)cc1)C(=O)/C=C/c1ccc2c(c1)OCO2 | 5.54 | 5.12 | 5.55 | – | 27.1
CC/C(=C\c1ccc(Cl)cc1)C(=O)/C=C/c1ccc(Br)cc1 | 5.85 | 4.71 | 5.27 | – | 29.4
CC/C(=C\c1ccc(Cl)cc1)C(C)=O | 4.24 | < 4.00 | < 4.00 | – | 136
COc1ccc(/C=C(\C)C(=O)/C=C/c2cc(OC)c(OC)c(OC)c2)cc1 | 5.43 | 4.16 | 5.21 | – | 21.4
CC/C(=C\c1ccc(Cl)cc1)C(=O)/C=C/c1ccc([N+](=O)[O-])cc1 | 6.30 | 4.75 | 5.60 | – | 36
CC/C(=C\c1ccc(Cl)cc1)C(=O)/C=C/c1ccc(C=O)cc1 | 4.76 | 4.13 | 4.19 | – | 46.9
O=C(Cn1ccnc1[N+](=O)[O-])NCc1ccccc1 [BENZNIDAZOLE] | – | 4.46 | 5.19 | – | –
COc1cc(/C=C/C(=O)c2ccc(O)c(O)c2)c(OC)c(OC)c1O | – | – | – | 5.43 | –
CC/C(=C\c1ccc(Cl)cc1)C(=O)/C=C/c1cccc(OC)c1OC | 5.70 | 4.72 | 5.26 | – | 21.8
CC/C(=C\c1ccc(Cl)cc1)C(=O)/C=C/c1ccccc1Br | 5.89 | 4.70 | 5.74 | – | 24.4
COc1ccc(/C=C(\C)C(=O)/C=C/c2ccc(/C=C/C(=O)/C(C)=C/c3ccc(OC)cc3)cc2)cc1 | 4.12 | < 4.00 | < 4.00 | – | 460

More lines, main results first:

pIC50 (Leishmania amazonensis) | pEC50 (Trypanosoma cruzi [1]) | pIC50 (Trypanosoma cruzi [3]) | pIC50 (Leishmania donovani) | Compound | CC50 at 72 h [2] [µM]
4.66 | 4.60 | 4.66 | – | COc1ccc(/C=C(\C)C(=O)/C=C/c2ccccc2Br)cc1 | 71
4.86 | 4.83 | 4.77 | – | COc1ccc(/C=C(\C)C(=O)/C=C/c2cccc(Cl)c2Cl)cc1 | 119
4.49 | 4.17 | 4.82 | – | COc1ccc(/C=C(\C)C(=O)/C=C/c2ccccc2F)cc1 | 81.2
4.76 | 4.68 | 4.70 | – | COc1ccc(/C=C(\C)C(=O)/C=C/c2ccc(Br)cc2)cc1 | 31.2
4.86 | 4.64 | 4.72 | – | COc1ccc(/C=C(\C)C(=O)/C=C/c2ccc(Cl)cc2)cc1 | 87
4.71 | 4.66 | 4.75 | – | COc1ccc(/C=C(\C)C(=O)/C=C/c2ccccc2Cl)cc1 | 74.3
4.76 | 4.69 | 4.76 | – | COc1ccc(/C=C(\C)C(=O)/C=C/c2cccc(Br)c2)cc1 | 152
5.01 | 4.18 | 5.01 | – | COc1ccc(/C=C(\C)C(=O)/C=C/c2ccc(OC)c(OC)c2)cc1 | 74.2
4.71 | 4.71 | 4.82 | – | COc1ccc(/C=C(\C)C(=O)/C=C/c2ccc(F)cc2)cc1 | 68.1
< 4.00 | < 4.00 | < 4.00 | – | COc1ccc(/C=C(\C)C(C)=O)cc1 | 240
